# “Also recorded” adds a separate entry of the source. Where a name gives a salt, the structure may show the parent alone. Read-outs that look alike come from different tables or passages of the source.
# Key:
# [1] = system: SARS-CoV-2; assay type: cell-based
# [2] = system: HO-1; test: HO-1 protein levels in Calu3 cells (flow cytometry); assay type: cell-based, human
# [3] = system: IL-6; assay type: cell-based, human
# [4] = system: Calu3 cells
# [5] = system: Keap1; test: Keap1 protein levels in Calu3 cells (flow cytometry); assay type: cell-based, human; conditions: infected and uninfected Calu3, pretreatment, data not shown
# [6] = system: Nrf2; test: Nrf2 protein levels in Calu3 cells (flow cytometry); assay type: cell-based, human; conditions: infected and uninfected Calu3, pretreatment, data not shown
# [7] = system: uninfected cultures; conditions: 10-1000 nM
# [8] = Calu3, 0.25 μM pretreatment, data not shown
molecule,measurement,setting,value
"COC(=O)/C=C/C(=O)OC [DMF, dimethyl fumarate]",viral titers / antiviral effect vs vehicle control (TCID50),"[1]; Calu3, 10 μM DMF alone, FIG. 11-a",did not produce an observable antiviral effect; also recorded: did not reduce viral titers
same,release of progeny SARS-CoV-2 virus particles to the cell supernatant (TCID50 assay),"[1]; Calu3, pretreatment with 10 μM DMF for 24 h, FIG. 5-a",reduction in subsequent release of progeny SARS-CoV-2 virus particles
same,HO-1 protein levels,"[2]; Calu3, pretreatment 10 μM, data not shown",increased HO-1 protein levels
same,release of IL-6 from infected cells (ELISA),"[3]; Calu3, pretreatment 10 μM for 24 h",reduction in subsequent release of IL-6
same,cytotoxicity (XTT assay),"[4]; uninfected Calu3, 100 μM, 24 h",cytotoxic
same,protein levels of Keap,[5],reduced protein levels of Keap
same,protein levels of Nrf2,[6],did not impact protein levels of Nrf2
CC1(C)CC(NC(=O)C[P+](c2ccccc2)(c2ccccc2)c2ccccc2)CC(C)(C)N1[O] [Mito-TEMPO],cytotoxicity (XTT assay),[7],no observed cytotoxicity
brusatol,effect on the antiviral effect of DMF and Mito-MES (TCID50),"[1]; Calu3, 0.25 μM pretreatment for 24 h",inhibited the antiviral effect of both DMF alone and Mito-MES
same,SARS-CoV-2 infection (flow cytometry),[1]; [8],directly enhanced SARS-CoV-2 infection
same,effect on the reduction in percent infected cells induced by Mito-MES and DMF,[1]; [8],attenuated the reduction in the percent of infected Calu3 cells
same,release of progeny SARS-CoV-2 virus particles to the cell supernatant (TCID50),"[1]; Calu3, pretreatment with 0.25 μM",significantly increased subsequent release of progeny SARS-CoV-2 virus particles
same,HO-1 protein levels,[2],increased the HO-1 protein levels
same,impact on the effect of Mito-MES on HO-1 protein levels,"[2]; Calu3, 0.25 μM, data not shown",did not have an impact on the effect of Mito-MES on HO-1 protein levels
same,effect on the anti-inflammatory effect of Mito-MES (IL-6 ELISA),"[3]; Calu3, 0.25 μM",inhibited the anti-inflammatory effect of Mito-MES
same,release of IL-6 to the cell supernatant from infected cells (ELISA),"[3]; Calu3, pretreatment 0.25 μM",significantly increased subsequent release of IL-6
same,protein levels of Keap,[5],increased protein levels of Keap
same,protein levels of Nrf2,[6],reduced protein levels of Nrf2
CCCCCCCCCC[P+](c1ccccc1)(c1ccccc1)c1ccccc1.[Br-] [DTPP],antiviral activity (TCID50 assay),"[1]; Calu3, 1000 nM",Antiviral activity was observed
same,cytotoxicity (XTT assay),"[4]; uninfected cells, 1000 nM",not cytotoxic

# Reference: patent publication US20250090557A1 (priority 2020, published 2025)
